US20050119305A1, “Il-6 production inhibitors” (priority 2001, published 2005)

Test system: IL-6 production from A549 cells
Assay: Inhibitory activity on IL-6 production from A549 cells (TNF-α stimulated, ELISA)
Assay type: cell-based
Conditions: A549 cells (human lung epithelial cell line), TNF-α stimulation, 24 hours incubation, IL-6 in supernatant by ELISA; read-out: 50% inhibitory concentration (IC50) on IL-6 production
Description: According to following experiments, it is confirmed that the compound of the present invention has an inhibitory activity on IL-6 production. • (1) The Measurement of an Inhibitory Activity on IL-6 Production from A549 Cells Method:
1.5×10^4 of A549 cells (human lung epithelial cell line) were suspended in 100 μL of Dulbecco's Modified Eagle Medium (DMEM) containing 0.5% fetal bovine serum (abbreviated as FBS) and incubated for a day and night in 96 well-microplate. 20 μL of the test compound dissolved in dimethylsulfoxide (DMSO) at various concentrations and 80 μl of tumor necrosis factor-α (TNF-α (Genzyme Co., cat. No. TNF-H)) dissolved in serum-free DMEM at the concentration of 12.5 ng/mL were added thereto. After the incubation for 24 hours, the supernatant (100 μL) was collected to measure the amount of IL-6 being produced using enzyme linked immuno […] assay (ELISA) (R&D Systems Co., cat. No. D6050). Then the inhibitory activity of the test compound was calculated and the 50% inhibitory concentration (IC50) was determined.

In the case of `O=C(CCCCCNC(=O)c1ccc(-c2ccccc2)cc1)NO` [Example 2], the IC50 is reported as 180 nM.
